Tests used:
Experiment in all cases: relative viability (nuclei count vs DMSO), 5 days (fraction); higher = more cells survive
[1] = compound: Nc1ncn([C@H]2C[C@H](O)[C@@H](CO)O2)c(=O)n1 [Decitabine] + COc1cccc2cc(-c3nc([C@H]4CC[C@H](C(=O)O)CC4)n4ncnc(N)c34)[nH]c12 [OSI-027] (partner 0.5 µM)
In short: (§1)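 Lung cancer cell lines in 1536-well plates were dosed by pin tool the day after seeding, either with one drug alone or with a fixed anchor-drug dose plus five library-drug doses (not always all listed) in √10 steps. After 5 days, cells were fixed and their nuclei stained in one step (final 0.05% Triton X-100, 1% formaldehyde, 1 ug/ml Hoechst), then counted on 4× images. Relative viability is the nuclei count in treated wells divided by that in vehicle wells. Values are medians of duplicate plates.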

[2] = compound: Nc1ncn([C@H]2C[C@H](O)[C@@H](CO)O2)c(=O)n1 [Decitabine] + N=C(N)NC(=N)NCCc1ccccc1 [Phenformin] (partner 250 µM)
In short: as §1

[3] = compound: Nc1ncn([C@H]2C[C@H](O)[C@@H](CO)O2)c(=O)n1 [Decitabine] + CS(=O)(=O)N1CCN(Cc2cc3nc(-c4cccc5[nH]ncc45)nc(N4CCOCC4)c3s2)CC1 [Pictilisib] (partner 1 µM)
In short: as §1

[4] = compound: COc1cc2c(Oc3ccc4[nH]c(C)cc4c3F)ncnc2cc1OCCCN1CCCC1 [Cediranib] + CS(=O)(=O)N1CCN(Cc2cc3nc(-c4cccc5[nH]ncc45)nc(N4CCOCC4)c3s2)CC1 [Pictilisib] (partner 1 µM)
In short: as §1

Row | Cell Line | relative viability ([1]; first compound 0.04 µM) | relative viability ([1]; first compound 0.1265 µM) | relative viability ([1]; first compound 0.4 µM) | relative viability ([1]; first compound 1.265 µM) | relative viability ([1]; first compound 4 µM) | relative viability ([2]; first compound 0.04 µM) | relative viability ([2]; first compound 0.1265 µM) | relative viability ([2]; first compound 0.4 µM) | relative viability ([2]; first compound 1.265 µM) | relative viability ([2]; first compound 4 µM) | relative viability ([3]; first compound 0.04 µM) | relative viability ([3]; first compound 0.1265 µM) | relative viability ([3]; first compound 0.4 µM) | relative viability ([3]; first compound 1.265 µM) | relative viability ([3]; first compound 4 µM) | relative viability ([4]; first compound 0.04 µM) | relative viability ([4]; first compound 0.1265 µM) | relative viability ([4]; first compound 0.4 µM) | relative viability ([4]; first compound 1.265 µM) | relative viability ([4]; first compound 4 µM)
1 | NCI-H2085 | 0.47 | 0.587 | 0.472 | 0.376 | 0.365 | 0.516 | 0.51 | 0.381 | 0.361 | 0.394 | 0.454 | 0.462 | 0.408 | 0.403 | 0.404 | 0.466 | 0.501 | 0.473 | 0.419 | 0.399
2 | NCI-H2087 | 0.376 | 0.348 | 0.317 | 0.257 | 0.28 | 0.411 | 0.359 | 0.291 | 0.242 | 0.25 | 0.762 | 0.779 | 0.519 | 0.404 | 0.336 | 0.921 | 0.763 | 0.825 | 0.752 | 0.935
3 | NCI-H2126 | 0.659 | 0.67 | 0.489 | 0.465 | 0.44 | 0.478 | 0.483 | 0.423 | 0.451 | 0.468 | 0.517 | 0.543 | 0.463 | 0.39 | 0.438 | 0.442 | 0.432 | 0.458 | 0.452 | 0.435
4 | NCI-H2170 | 0.626 | 0.55 | 0.454 | 0.44 | 0.385 | 0.345 | 0.365 | 0.291 | 0.269 | 0.282 | 0.256 | 0.254 | 0.312 | 0.285 | 0.269 | 0.259 | 0.275 | 0.306 | 0.254 | 0.301
5 | NCI-H2228 | 0.418 | 0.431 | 0.205 | 0.103 | 0.207 | 0.271 | 0.252 | 0.103 | 0.154 | 0.192 | 0.355 | 0.441 | 0.179 | 0.287 | 0.232 | 0.522 | 0.504 | 0.459 | 0.288 | 0.557
6 | NCI-H2347 | 0.382 | 0.478 | 0.34 | 0.402 | 0.383 | 0.472 | 0.384 | 0.413 | 0.467 | 0.326 | 0.59 | 0.599 | 0.63 | 0.495 | 0.554 | 0.592 |  | 0.742 | 0.516 | 0.444
7 | NCI-H2405 | 0.555 | 0.564 | 0.543 | 0.444 | 0.399 | 0.388 | 0.39 | 0.408 | 0.321 | 0.366 | 0.457 | 0.453 | 0.562 | 0.406 | 0.298 | 0.457 | 0.708 | 0.416 | 0.305 | 0.415
8 | NCI-H3122 | 0.814 | 0.955 | 0.468 |  | 0.559 | 0.371 | 0.364 | 0.342 |  | 0.315 | 0.64 | 0.564 | 0.399 | 0.571 | 0.517 | 0.669 | 0.674 | 0.585 | 0.55 | 0.588
9 | PC-3 [JPC-3] | 0.463 | 0.702 | 0.475 | 0.469 | 0.426 | 0.372 | 0.452 | 0.393 | 0.386 | 0.379 |  | 0.733 | 0.434 | 0.609 | 0.646 | 0.659 | 0.905 | 0.708 | 0.671 | 0.768
10 | PC-14 | 0.148 | 0.425 | 0.16 | 0.113 | 0.105 | 0.114 | 0.339 | 0.128 | 0.126 | 0.163 | 0.0668 | 0.749 | 0.348 | 0.28 | 0.11 | 0.826 | 0.918 | 0.487 | 0.438 | 0.652
11 | RERF-LC-KJ | 0.529 | 0.559 |  | 0.457 | 0.471 | 0.459 | 0.386 |  | 0.402 | 0.333 | 0.508 | 0.607 | 0.403 | 0.368 | 0.354 | 0.526 | 0.573 | 0.516 | 0.461 | 0.431
12 | SK-LU-1 | 0.296 | 0.29 | 0.216 | 0.253 | 0.227 | 0.42 | 0.448 | 0.278 | 0.344 | 0.297 | 0.53 | 0.447 | 0.306 | 0.365 | 0.282 | 0.632 | 0.796 | 0.54 | 0.497 | 0.498
13 | SK-MES-1 | 0.508 | 0.529 | 0.384 | 0.188 | 0.203 | 0.535 | 0.553 | 0.346 | 0.271 | 0.291 | 0.258 | 0.367 | 0.427 | 0.271 | 0.243 | 0.349 | 0.441 | 0.284 | 0.391 | 0.383
14 | SW 1573 | 0.469 | 0.558 | 0.572 | 0.273 | 0.21 | 0.32 | 0.327 | 0.323 | 0.287 | 0.168 | 0.535 | 0.425 | 0.491 | 0.279 | 0.202 | 0.544 | 0.486 | 0.428 | 0.474 | 0.486

— the supplement of paper PMC10307832
